How the values were obtained:
Experiment in all cases: radiometric filter-binding kinase assay, Kinase HotSpot
Conditions in all cases: compound 0.5 µM; ATP 10 µM
AURKC (human) = AURKC (human) (UniProt Q9UQB9)
KDR (human) = KDR (human) (UniProt P35968)
TNK2 (human) = TNK2 (human) (UniProt Q07912)
TSSK1B (human) = TSSK1B (human) (UniProt Q9BXA7)
TAOK2 (human) = TAOK2 (human) (UniProt Q9UL54)
CLK3 (human) = CLK3 (human) (UniProt P49761)
PAK3 (human) = PAK3 (human) (UniProt O75914)
MERTK (human) = MERTK (human) (UniProt Q12866)
RPS6KA5 KD2 (human) = RPS6KA5 KD2 (human) (UniProt O75582)
MAPK1 (human) = MAPK1 (human) (UniProt P28482)
CDK6 CCND1 (human) = CDK6 CCND1 (human) (UniProt Q00534+P24385)
DDR2 (human) = DDR2 (human) (UniProt Q16832)
EPHA4 (human) = EPHA4 (human) (UniProt P54764)
MAP3K7 TAB1 (human) = MAP3K7 TAB1 (human) (UniProt O43318+Q15750)
FES (human) = FES (human) (UniProt P07332)
ERBB4 (human) = ERBB4 (human) (UniProt Q15303)
CDK1 CCNA2 (human) = CDK1 CCNA2 (human) (UniProt P06493+P20248)
DAPK2 (human) = DAPK2 (human) (UniProt Q9UIK4)
MAPK14 (human) = MAPK14 (human) (UniProt Q16539)
PBK (human) = PBK (human) (UniProt Q96KB5)
MAP3K2 (human) = MAP3K2 (human) (UniProt Q9Y2U5)
TAOK1 (human) = TAOK1 (human) (UniProt Q7L7X3)
STK11 (human) = STK11 (human) (UniProt Q15831)
ACVR1B (human) = ACVR1B (human) (UniProt P36896)
NEK11 (human) = NEK11 (human) (UniProt Q8NG66)
RPS6KB1 (human) = RPS6KB1 (human) (UniProt P23443)
WEE1 (human) = WEE1 (human) (UniProt P30291)
PHKG2 (human) = PHKG2 (human) (UniProt P15735)
KIT (human) = KIT (human) (UniProt P10721)
FGR (human) = FGR (human) (UniProt P09769)
PKN2 (human) = PKN2 (human) (UniProt Q16513)
PRKACG (human) = PRKACG (human) (UniProt P22612)
PDPK1 (human) = PDPK1 (human) (UniProt O15530)
CDK5 CDK5R1 p25 (human) = CDK5 CDK5R1 p25 (human) (UniProt Q00535+Q15078)
ERBB2 (human) = ERBB2 (human) (UniProt P04626)
RAF1 (human) = RAF1 (human) (UniProt P04049)
RET (human) = RET (human) (UniProt P07949)
CDK4 CCND3 (human) = CDK4 CCND3 (human) (UniProt P30281+P11802)
CSNK1D (human) = CSNK1D (human) (UniProt P48730)
VRK1 (human) = VRK1 (human) (UniProt Q99986)
TEC (human) = TEC (human) (UniProt P42680)
AKT2 (human) = AKT2 (human) (UniProt P31751)

Sequence of RPS6KA5 KD2 (human) (O75582 whole entry, looked up): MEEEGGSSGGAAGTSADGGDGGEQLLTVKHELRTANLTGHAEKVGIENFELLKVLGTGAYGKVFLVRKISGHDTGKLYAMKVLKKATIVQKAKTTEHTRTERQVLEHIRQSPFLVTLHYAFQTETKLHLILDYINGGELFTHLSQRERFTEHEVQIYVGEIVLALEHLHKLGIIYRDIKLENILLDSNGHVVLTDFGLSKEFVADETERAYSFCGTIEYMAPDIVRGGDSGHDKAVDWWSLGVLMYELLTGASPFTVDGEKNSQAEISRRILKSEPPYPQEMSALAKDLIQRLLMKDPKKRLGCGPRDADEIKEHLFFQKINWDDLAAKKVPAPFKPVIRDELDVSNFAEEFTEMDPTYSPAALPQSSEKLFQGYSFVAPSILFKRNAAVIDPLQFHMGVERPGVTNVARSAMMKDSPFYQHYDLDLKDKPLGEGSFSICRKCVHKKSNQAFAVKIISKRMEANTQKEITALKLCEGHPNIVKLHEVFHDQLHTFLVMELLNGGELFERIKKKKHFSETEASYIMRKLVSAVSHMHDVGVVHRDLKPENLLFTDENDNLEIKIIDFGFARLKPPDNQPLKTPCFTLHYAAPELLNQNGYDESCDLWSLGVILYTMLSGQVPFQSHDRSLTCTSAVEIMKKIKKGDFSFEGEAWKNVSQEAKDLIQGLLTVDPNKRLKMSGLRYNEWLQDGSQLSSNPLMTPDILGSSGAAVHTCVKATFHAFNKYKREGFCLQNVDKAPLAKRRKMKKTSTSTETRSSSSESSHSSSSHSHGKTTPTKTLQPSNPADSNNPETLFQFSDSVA
Sequence of DAPK2 (human) (Q9UIK4 whole entry, looked up): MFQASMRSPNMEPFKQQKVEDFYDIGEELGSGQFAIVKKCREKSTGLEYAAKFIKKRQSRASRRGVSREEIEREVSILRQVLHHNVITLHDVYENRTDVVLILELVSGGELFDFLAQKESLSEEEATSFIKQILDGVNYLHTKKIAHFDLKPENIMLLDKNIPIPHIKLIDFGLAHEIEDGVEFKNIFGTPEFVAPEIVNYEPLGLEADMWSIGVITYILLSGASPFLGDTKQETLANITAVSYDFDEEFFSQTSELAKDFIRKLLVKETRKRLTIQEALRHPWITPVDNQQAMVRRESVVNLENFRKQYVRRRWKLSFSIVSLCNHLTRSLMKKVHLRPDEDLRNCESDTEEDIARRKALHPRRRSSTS
Sequence of CLK3 (human) (P49761 whole entry, looked up): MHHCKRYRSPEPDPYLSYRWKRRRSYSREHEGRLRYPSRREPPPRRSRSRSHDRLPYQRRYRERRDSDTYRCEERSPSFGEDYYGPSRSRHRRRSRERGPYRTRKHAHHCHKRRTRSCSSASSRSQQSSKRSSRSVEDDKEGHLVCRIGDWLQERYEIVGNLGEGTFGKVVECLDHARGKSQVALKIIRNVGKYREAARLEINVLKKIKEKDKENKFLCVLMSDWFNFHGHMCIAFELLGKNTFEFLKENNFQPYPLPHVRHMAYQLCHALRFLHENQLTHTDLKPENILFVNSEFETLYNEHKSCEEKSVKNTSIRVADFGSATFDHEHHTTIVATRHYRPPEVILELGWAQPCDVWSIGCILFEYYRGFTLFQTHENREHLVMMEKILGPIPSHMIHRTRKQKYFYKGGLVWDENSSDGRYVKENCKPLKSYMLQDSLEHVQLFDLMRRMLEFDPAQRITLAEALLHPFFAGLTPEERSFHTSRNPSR
Sequence of TSSK1B (human) (Q9BXA7 whole entry, looked up): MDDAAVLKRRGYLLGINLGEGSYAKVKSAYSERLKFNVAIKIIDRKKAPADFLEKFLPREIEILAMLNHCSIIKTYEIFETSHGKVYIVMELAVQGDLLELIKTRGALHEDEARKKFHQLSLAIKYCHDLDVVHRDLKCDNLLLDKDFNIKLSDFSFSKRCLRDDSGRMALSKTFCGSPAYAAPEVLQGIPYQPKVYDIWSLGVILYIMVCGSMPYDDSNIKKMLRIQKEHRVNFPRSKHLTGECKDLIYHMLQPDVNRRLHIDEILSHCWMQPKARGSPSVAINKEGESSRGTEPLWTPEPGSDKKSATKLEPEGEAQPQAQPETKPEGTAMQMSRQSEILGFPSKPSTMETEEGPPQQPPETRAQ
Sequence of KDR (human) (P35968 whole entry, looked up): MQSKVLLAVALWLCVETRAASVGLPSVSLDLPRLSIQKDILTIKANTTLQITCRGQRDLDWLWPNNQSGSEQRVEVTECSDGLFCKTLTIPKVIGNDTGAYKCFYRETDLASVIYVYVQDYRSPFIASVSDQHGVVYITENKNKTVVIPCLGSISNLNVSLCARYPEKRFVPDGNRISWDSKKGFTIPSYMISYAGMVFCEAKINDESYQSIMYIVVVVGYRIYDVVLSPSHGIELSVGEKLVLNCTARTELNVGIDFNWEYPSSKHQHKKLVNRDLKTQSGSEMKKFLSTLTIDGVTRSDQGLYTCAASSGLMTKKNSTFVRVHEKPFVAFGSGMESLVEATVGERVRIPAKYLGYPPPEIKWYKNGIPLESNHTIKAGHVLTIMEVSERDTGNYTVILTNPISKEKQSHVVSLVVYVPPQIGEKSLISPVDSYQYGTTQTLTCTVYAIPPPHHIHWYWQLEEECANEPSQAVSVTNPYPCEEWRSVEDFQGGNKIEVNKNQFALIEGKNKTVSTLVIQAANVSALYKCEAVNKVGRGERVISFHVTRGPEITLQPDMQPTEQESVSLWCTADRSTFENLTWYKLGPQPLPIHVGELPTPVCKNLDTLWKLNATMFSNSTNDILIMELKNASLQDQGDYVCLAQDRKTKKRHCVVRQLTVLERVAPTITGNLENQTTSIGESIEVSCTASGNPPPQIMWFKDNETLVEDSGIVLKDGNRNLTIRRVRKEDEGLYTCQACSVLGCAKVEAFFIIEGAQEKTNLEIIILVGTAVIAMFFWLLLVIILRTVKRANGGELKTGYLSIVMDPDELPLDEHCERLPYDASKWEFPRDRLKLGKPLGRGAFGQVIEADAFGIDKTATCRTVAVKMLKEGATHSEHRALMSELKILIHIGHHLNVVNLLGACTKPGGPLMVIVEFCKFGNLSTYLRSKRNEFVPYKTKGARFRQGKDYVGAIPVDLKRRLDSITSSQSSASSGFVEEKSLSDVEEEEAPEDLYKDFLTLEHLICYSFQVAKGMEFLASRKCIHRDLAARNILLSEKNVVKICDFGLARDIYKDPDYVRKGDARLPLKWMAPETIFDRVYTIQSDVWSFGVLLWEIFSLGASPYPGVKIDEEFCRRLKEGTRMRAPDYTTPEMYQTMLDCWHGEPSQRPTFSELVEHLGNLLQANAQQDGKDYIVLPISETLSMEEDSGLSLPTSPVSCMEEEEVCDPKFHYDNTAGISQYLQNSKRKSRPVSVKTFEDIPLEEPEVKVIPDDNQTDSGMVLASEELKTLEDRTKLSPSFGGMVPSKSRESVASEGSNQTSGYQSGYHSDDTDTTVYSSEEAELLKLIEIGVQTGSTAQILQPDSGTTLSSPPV
Sequence of CDK4 CCND3 (human) (P11802 whole entry, looked up): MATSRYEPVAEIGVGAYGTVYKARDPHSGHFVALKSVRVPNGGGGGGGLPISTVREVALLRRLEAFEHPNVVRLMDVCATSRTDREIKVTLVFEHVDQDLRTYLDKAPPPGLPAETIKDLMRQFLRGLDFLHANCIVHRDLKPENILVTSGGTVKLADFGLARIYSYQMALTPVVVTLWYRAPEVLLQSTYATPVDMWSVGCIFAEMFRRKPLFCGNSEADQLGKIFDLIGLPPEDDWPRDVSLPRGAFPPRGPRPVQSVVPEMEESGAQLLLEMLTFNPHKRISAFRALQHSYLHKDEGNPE
Sequence of CDK4 CCND3 (human) (P30281 whole entry, looked up): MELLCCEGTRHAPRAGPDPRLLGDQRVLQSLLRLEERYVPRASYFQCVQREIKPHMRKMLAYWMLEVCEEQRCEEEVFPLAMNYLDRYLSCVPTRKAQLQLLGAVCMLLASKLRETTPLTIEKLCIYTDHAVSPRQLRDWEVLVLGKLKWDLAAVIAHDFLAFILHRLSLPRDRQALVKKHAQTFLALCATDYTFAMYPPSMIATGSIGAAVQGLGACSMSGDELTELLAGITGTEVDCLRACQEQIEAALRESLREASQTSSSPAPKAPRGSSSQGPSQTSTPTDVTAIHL
Sequence of VRK1 (human) (Q99986 whole entry, looked up): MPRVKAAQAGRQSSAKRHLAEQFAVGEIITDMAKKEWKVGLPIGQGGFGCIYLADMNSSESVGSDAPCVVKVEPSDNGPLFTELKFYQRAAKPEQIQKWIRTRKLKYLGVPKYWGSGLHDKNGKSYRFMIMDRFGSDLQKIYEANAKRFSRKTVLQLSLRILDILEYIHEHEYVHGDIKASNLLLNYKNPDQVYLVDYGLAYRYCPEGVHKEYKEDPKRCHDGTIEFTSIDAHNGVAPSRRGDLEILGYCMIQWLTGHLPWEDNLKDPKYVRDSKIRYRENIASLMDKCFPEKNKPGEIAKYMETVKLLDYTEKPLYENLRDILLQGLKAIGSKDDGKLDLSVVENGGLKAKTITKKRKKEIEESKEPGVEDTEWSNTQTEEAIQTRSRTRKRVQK
Sequence of STK11 (human) (Q15831 whole entry, looked up): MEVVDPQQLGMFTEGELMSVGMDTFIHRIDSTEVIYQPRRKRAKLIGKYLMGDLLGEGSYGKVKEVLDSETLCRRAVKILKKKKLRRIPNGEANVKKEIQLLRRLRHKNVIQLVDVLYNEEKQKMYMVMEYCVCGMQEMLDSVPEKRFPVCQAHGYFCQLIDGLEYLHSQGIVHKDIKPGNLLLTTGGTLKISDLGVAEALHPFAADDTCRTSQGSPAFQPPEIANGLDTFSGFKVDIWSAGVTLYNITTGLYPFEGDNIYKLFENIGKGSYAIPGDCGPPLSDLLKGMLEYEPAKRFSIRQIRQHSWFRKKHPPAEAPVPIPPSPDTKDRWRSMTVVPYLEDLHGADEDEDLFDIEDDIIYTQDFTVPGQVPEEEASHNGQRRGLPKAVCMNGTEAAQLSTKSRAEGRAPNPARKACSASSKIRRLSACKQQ

`O=C1Nc2ccc(Cl)cc2/C1=C/c1cc(Cl)c(O)c(Cl)c1` was tested, and the residual activity (AURKC (human)) was 78.6%, the residual activity (KDR (human)) was 86.1% and the residual activity (TNK2 (human)) was 32.4%. For the same compound, the residual activity (TSSK1B (human)) was 88.2%, the residual activity (TAOK2 (human)) was 81.3% and the residual activity (CLK3 (human)) was 90.9%. For the same compound, the residual activity (PAK3 (human)) was 94.3%, the residual activity (MERTK (human)) was 88.4% and the residual activity (RPS6KA5 KD2 (human)) was 86.1%. It also gave a residual activity (MAPK1 (human)) of 84.3%, a residual activity (CDK6 CCND1 (human)) of 97% and a residual activity (DDR2 (human)) of 85.8%. It also gave a residual activity (EPHA4 (human)) of 93.1%, a residual activity (MAP3K7 TAB1 (human)) of 86.8% and a residual activity (FES (human)) of 93.7%. It also gave a residual activity (ERBB4 (human)) of 94.2%, a residual activity (CDK1 CCNA2 (human)) of 91.9% and a residual activity (DAPK2 (human)) of 135%. It also gave a residual activity (MAPK14 (human)) of 74.6%, a residual activity (PBK (human)) of 86.1% and a residual activity (MAP3K2 (human)) of 95.7%. It also gave a residual activity (TAOK1 (human)) of 71.6%, a residual activity (STK11 (human)) of 93.1% and a residual activity (ACVR1B (human)) of 127%. The residual activity (NEK11 (human)) was 104%, the residual activity (RPS6KB1 (human)) was 91% and the residual activity (WEE1 (human)) was 79.1%. It also gave a residual activity (PHKG2 (human)) of 98.4%, a residual activity (KIT (human)) of 35% and a residual activity (FGR (human)) of 84.8%. For the same compound, the residual activity (PKN2 (human)) was 114%, the residual activity (PRKACG (human)) was 99.2% and the residual activity (PDPK1 (human)) was 103%. It also gave a residual activity (CDK5 CDK5R1 p25 (human)) of 82.6%, a residual activity (ERBB2 (human)) of 107% and a residual activity (RAF1 (human)) of 6.93%. For the same compound, the residual activity (RET (human)) was 80.4%, the residual activity (CDK4 CCND3 (human)) was 94.8% and the residual activity (CSNK1D (human)) was 89.6%. It also gave a residual activity (VRK1 (human)) of 80.6%, a residual activity (TEC (human)) of 109% and a residual activity (AKT2 (human)) of 93.9%.

`CCCC(=O)Oc1ccc2[nH]c(C(=O)c3cc4ccccc4[nH]3)cc2c1` was tested, and the residual activity (AURKC (human)) was 94.9%, the residual activity (KDR (human)) was 90.4% and the residual activity (TNK2 (human)) was 77.7%. It also gave a residual activity (TSSK1B (human)) of 78.1%, a residual activity (TAOK2 (human)) of 110% and a residual activity (CLK3 (human)) of 96.9%. It also gave a residual activity (PAK3 (human)) of 102%, a residual activity (MERTK (human)) of 96.7% and a residual activity (RPS6KA5 KD2 (human)) of 95.3%. The residual activity (MAPK1 (human)) was 105%, the residual activity (CDK6 CCND1 (human)) was 92.7% and the residual activity (DDR2 (human)) was 89.9%. It also gave a residual activity (EPHA4 (human)) of 99.3%, a residual activity (MAP3K7 TAB1 (human)) of 92.1% and a residual activity (FES (human)) of 97.8%. For the same compound, the residual activity (ERBB4 (human)) was 99.8%, the residual activity (CDK1 CCNA2 (human)) was 87.3% and the residual activity (DAPK2 (human)) was 88.4%. The residual activity (MAPK14 (human)) was 102%, the residual activity (PBK (human)) was 104% and the residual activity (MAP3K2 (human)) was 81.7%. The residual activity (TAOK1 (human)) was 82.8%, the residual activity (STK11 (human)) was 101% and the residual activity (ACVR1B (human)) was 98.9%. It also gave a residual activity (NEK11 (human)) of 101%, a residual activity (RPS6KB1 (human)) of 94.5% and a residual activity (WEE1 (human)) of 85.8%. It also gave a residual activity (PHKG2 (human)) of 117%, a residual activity (KIT (human)) of 82.4% and a residual activity (FGR (human)) of 88.4%. It also gave a residual activity (PKN2 (human)) of 100%, a residual activity (PRKACG (human)) of 99.8% and a residual activity (PDPK1 (human)) of 101%. For the same compound, the residual activity (CDK5 CDK5R1 p25 (human)) was 90.1%, the residual activity (ERBB2 (human)) was 85.9% and the residual activity (RAF1 (human)) was 98.7%. For the same compound, the residual activity (RET (human)) was 100%, the residual activity (CDK4 CCND3 (human)) was 103% and the residual activity (CSNK1D (human)) was 96.4%. It also gave a residual activity (VRK1 (human)) of 85.9%, a residual activity (TEC (human)) of 97.8% and a residual activity (AKT2 (human)) of 105%.

For `c1ccc(-c2n[nH]cc2-c2ccnc3ccccc23)nc1`, the residual activity (AURKC (human)) was 100%, the residual activity (KDR (human)) was 103% and the residual activity (TNK2 (human)) was 96.2%. For the same compound, the residual activity (TSSK1B (human)) was 104%, the residual activity (TAOK2 (human)) was 96.8% and the residual activity (CLK3 (human)) was 105%. For the same compound, the residual activity (PAK3 (human)) was 99.7%, the residual activity (MERTK (human)) was 92.6% and the residual activity (RPS6KA5 KD2 (human)) was 102%. The residual activity (MAPK1 (human)) was 108%, the residual activity (CDK6 CCND1 (human)) was 91.1% and the residual activity (DDR2 (human)) was 95.1%. The residual activity (EPHA4 (human)) was 98%, the residual activity (MAP3K7 TAB1 (human)) was 98.4% and the residual activity (FES (human)) was 111%. For the same compound, the residual activity (ERBB4 (human)) was 85.7%, the residual activity (CDK1 CCNA2 (human)) was 82.7% and the residual activity (DAPK2 (human)) was 102%. It also gave a residual activity (MAPK14 (human)) of 96%, a residual activity (PBK (human)) of 91.9% and a residual activity (MAP3K2 (human)) of 91.2%. For the same compound, the residual activity (TAOK1 (human)) was 93%, the residual activity (STK11 (human)) was 82.6% and the residual activity (ACVR1B (human)) was 43.2%. For the same compound, the residual activity (NEK11 (human)) was 91.8%, the residual activity (RPS6KB1 (human)) was 106% and the residual activity (WEE1 (human)) was 91.1%. For the same compound, the residual activity (PHKG2 (human)) was 97.7%, the residual activity (KIT (human)) was 93.5% and the residual activity (FGR (human)) was 91.9%. It also gave a residual activity (PKN2 (human)) of 91.4%, a residual activity (PRKACG (human)) of 92.9% and a residual activity (PDPK1 (human)) of 93.8%. For the same compound, the residual activity (CDK5 CDK5R1 p25 (human)) was 97.2%, the residual activity (ERBB2 (human)) was 106% and the residual activity (RAF1 (human)) was 89.5%. The residual activity (RET (human)) was 93.8%, the residual activity (CDK4 CCND3 (human)) was 102% and the residual activity (CSNK1D (human)) was 44.2%. For the same compound, the residual activity (VRK1 (human)) was 92.6%, the residual activity (TEC (human)) was 106% and the residual activity (AKT2 (human)) was 93%.

— the kinase profiling compilation of Christmann-Franck et al. (2016)
